The values that follow come from ChEMBL document CHEMBL2396620, “Synthesis and biological evaluation of novel benzoxazinyl-oxazolidinones as potential antibacterial agents” (2013).

≈ marks a conversion by molar mass, not a printed value. Bounds are passed on as bounds.

Type in all cases: functional
For test [1], the system named is Enterococcus faecalis. Kind of test: Antibacterial activity against Enterococcus faecalis assessed as growth inhibition after 16 hrs by agar dilution method.
For test [2], the system named is Streptococcus pneumoniae. Kind of test: Antibacterial activity against penicillin-resistant Streptococcus pneumoniae assessed as growth inhibition after 16 hrs by agar dilution method.
Test [3] has as its system Staphylococcus epidermidis. Kind of test: Antibacterial activity against methicillin-sensitive Staphylococcus epidermidis assessed as growth inhibition after 16 hrs by agar dilution method.
Test [4] concerns Staphylococcus aureus. Kind of test: Antibacterial activity against methicillin-sensitive Staphylococcus aureus assessed as growth inhibition after 16 hrs by agar dilution method.
The test system of test [5] is Staphylococcus epidermidis. As to the kind of experiment: Antibacterial activity against methicillin-resistant Staphylococcus epidermidis assessed as growth inhibition after 16 hrs by agar dilution method.
The subject of test [6] is Staphylococcus aureus. As to the kind of experiment: Antibacterial activity against methicillin-resistant Staphylococcus aureus assessed as growth inhibition after 16 hrs by agar dilution method.
Test [7] relates to Enterococcus faecalis. As to the kind of experiment: Ratio of linezolid MIC to compound MIC for Enterococcus faecalis.
Test [8] has as its system Staphylococcus epidermidis. As to the kind of experiment: Ratio of linezolid MIC to compound MIC for methicillin-sensitive Staphylococcus epidermidis.
Test [9] has as its system Staphylococcus aureus. As to the kind of experiment: Ratio of linezolid MIC to compound MIC for methicillin-sensitive Staphylococcus aureus.
The subject of test [10] is Streptococcus pneumoniae. As to the kind of experiment: Ratio of linezolid MIC to compound MIC for penicillin-resistant Streptococcus pneumoniae.

`Cc1nc(-c2ccc(-c3ccc4c(c3)OC[C@H]3[C@H](C(N)=O)OC(=O)N43)cn2)no1`: the MIC (in the test with Enterococcus faecalis [1]; in the test with Streptococcus pneumoniae [2]; in [3]; in the test with Staphylococcus aureus [4]) was greater than 32 µg/mL throughout.
`N#Cc1ccc(-c2ccc3c(c2)OC[C@H]2[C@H](C(N)=O)OC(=O)N32)cn1`: the MIC (with Enterococcus faecalis [1]; in the test on Streptococcus pneumoniae [2]; in test [3]; with Staphylococcus aureus [4]) was greater than 32 µg/mL in each case.
With `NC(=O)[C@@H]1OC(=O)N2c3ccc(-c4ccc(-n5ccoc5=O)nc4)cc3OC[C@@H]12`, the MIC (in the test with Enterococcus faecalis [1]; with Streptococcus pneumoniae [2]; in [5]; in [3]; in the test on Staphylococcus aureus [6]; in the test with Staphylococcus aureus [4]) was greater than 32 µg/mL throughout.
Take `O=C1O[C@@H](Cn2ccnn2)[C@@H]2COc3cc(-c4ccc(Cn5cncn5)nc4)ccc3N12`: the Ratio (with Enterococcus faecalis [7]; in test [8]; in the test with Staphylococcus aureus [9]) was 2 throughout. In addition, the MIC with Enterococcus faecalis [1] turned out to be 1 µg/mL (≈ 2.32 µM); in the test on Streptococcus pneumoniae [2] it was 2 µg/mL (≈ 4.65 µM); in test [5], 0.5 µg/mL (≈ 1.16 µM); in test [3], 0.5 µg/mL (≈ 1.16 µM); in the test on Staphylococcus aureus [6], 0.5 µg/mL (≈ 1.16 µM); in the test on Staphylococcus aureus [4] it was 0.5 µg/mL (≈ 1.16 µM).
`CC(=O)NC[C@H]1CN(c2ccc(N3CCOCC3)c(F)c2)C(=O)O1` [LINEZOLID]: the minimal inhibitory concentration (MIC) (in [5]; in [3]; with Staphylococcus aureus [6]; in the test on Staphylococcus aureus [4]) was 1 µg/mL (≈ 2.96 µM) throughout.
`CC(=O)c1ccc(-c2ccc3c(c2)OC[C@H]2[C@H](Cn4ccnn4)OC(=O)N32)cn1`: the MIC in the test with Enterococcus faecalis [1] amounted to 2 µg/mL (≈ 5.11 µM); in the test on Streptococcus pneumoniae [2], 0.25 µg/mL (≈ 0.639 µM); in test [5] it was 1 µg/mL (≈ 2.56 µM); in [3] it was 0.5 µg/mL (≈ 1.28 µM); in the test on Staphylococcus aureus [6] it was 0.5 µg/mL (≈ 1.28 µM); with Staphylococcus aureus [4], 0.5 µg/mL (≈ 1.28 µM).
As for `Cc1nc(-c2ccc(-c3ccc4c(c3)OC[C@H]3[C@H](Cn5ccnn5)OC(=O)N43)cn2)no1`, the minimal inhibitory concentration (MIC) worked out at 8 µg/mL (≈ 18.5 µM) in the test with Enterococcus faecalis [1]; 1 µg/mL (≈ 2.32 µM) with Streptococcus pneumoniae [2]; 4 µg/mL (≈ 9.27 µM) in [5]; 2 µg/mL (≈ 4.64 µM) in test [3]; 2 µg/mL (≈ 4.64 µM) in the test with Staphylococcus aureus [6]; 2 µg/mL (≈ 4.64 µM) in the test on Staphylococcus aureus [4].
On to `CCO/N=C(\C)c1ccc(-c2ccc3c(c2)OC[C@H]2[C@H](Cn4ccnn4)OC(=O)N32)cn1`, for which the MIC (in the test with Enterococcus faecalis [1]; in the test on Streptococcus pneumoniae [2]; in [3]; with Staphylococcus aureus [4]) was greater than 32 µg/mL each time.
Take `C/C(=N\OC(C)C)c1ccc(-c2ccc3c(c2)OC[C@H]2[C@H](Cn4ccnn4)OC(=O)N32)cn1`: the MIC (in the test with Enterococcus faecalis [1]; in the test on Streptococcus pneumoniae [2]; in test [3]; in the test on Staphylococcus aureus [4]) was greater than 32 µg/mL each time.
On to `Cn1nnnc1-c1ccc(-c2ccc3c(c2)OC[C@H]2[C@H](Cn4ccnn4)OC(=O)N32)cn1`, for which the MIC in the test with Enterococcus faecalis [1] amounted to 4 µg/mL (≈ 9.27 µM); in the test on Streptococcus pneumoniae [2], 2 µg/mL (≈ 4.64 µM); in test [5], 1 µg/mL (≈ 2.32 µM); in test [3], 1 µg/mL (≈ 2.32 µM); with Staphylococcus aureus [6], 1 µg/mL (≈ 2.32 µM); with Staphylococcus aureus [4], 2 µg/mL (≈ 4.64 µM).
Take `O=C1O[C@@H](Cn2ccnn2)[C@@H]2COc3cc(-c4ccc(Cn5ccnn5)nc4)ccc3N12`: the MIC in the test with Enterococcus faecalis [1] amounted to 4 µg/mL (≈ 9.29 µM); in the test with Streptococcus pneumoniae [2] it was 2 µg/mL (≈ 4.65 µM); in [5], 1 µg/mL (≈ 2.32 µM); in test [3] it was 1 µg/mL (≈ 2.32 µM); with Staphylococcus aureus [6], 1 µg/mL (≈ 2.32 µM); in the test on Staphylococcus aureus [4] it was 2 µg/mL (≈ 4.65 µM).
As to `O=C1O[C@@H](Cn2ccnn2)[C@@H]2COc3cc(-c4ccc(-n5cc(CO)oc5=O)nc4)ccc3N12`, the MIC in the test on Enterococcus faecalis [1] came out at 1 µg/mL (≈ 2.16 µM); in the test on Streptococcus pneumoniae [2], 0.5 µg/mL (≈ 1.08 µM); in test [5] it was 1 µg/mL (≈ 2.16 µM); in test [3] it was 0.5 µg/mL (≈ 1.08 µM); in the test on Staphylococcus aureus [6] it was 1 µg/mL (≈ 2.16 µM); in the test on Staphylococcus aureus [4] it was 0.5 µg/mL (≈ 1.08 µM).
`NC(=O)[C@@H]1OC(=O)N2c3ccc(-c4ccc(Cn5cncn5)nc4)cc3OC[C@@H]12`: the MIC (in the test on Enterococcus faecalis [1]; with Streptococcus pneumoniae [2]; in test [5]; in [3]; in the test on Staphylococcus aureus [6]; with Staphylococcus aureus [4]) was greater than 32 µg/mL in each case.
As for `O=C1O[C@@H](Cn2ccnn2)[C@@H]2COc3cc(-c4ccc(CO)nc4)ccc3N12`, the MIC came out at 4 µg/mL (≈ 10.5 µM) with Enterococcus faecalis [1]; 2 µg/mL (≈ 5.27 µM) in the test with Streptococcus pneumoniae [2]; 1 µg/mL (≈ 2.64 µM) in test [5]; 1 µg/mL (≈ 2.64 µM) in test [3]; 1 µg/mL (≈ 2.64 µM) in the test with Staphylococcus aureus [6]; 2 µg/mL (≈ 5.27 µM) with Staphylococcus aureus [4].
As to `CC(O)c1ccc(-c2ccc3c(c2)OC[C@H]2[C@H](Cn4ccnn4)OC(=O)N32)cn1` (some centres not stated), the MIC is 2 µg/mL (≈ 5.08 µM) in the test on Enterococcus faecalis [1]; 0.5 µg/mL (≈ 1.27 µM) with Streptococcus pneumoniae [2]; 1 µg/mL (≈ 2.54 µM) in test [5]; 1 µg/mL (≈ 2.54 µM) in [3]; 1 µg/mL (≈ 2.54 µM) in the test with Staphylococcus aureus [6]; 1 µg/mL (≈ 2.54 µM) in the test on Staphylococcus aureus [4].
For `O=C1O[C@@H](Cn2ccnn2)[C@@H]2COc3cc(-c4ccc(Cn5ncnn5)nc4)ccc3N12`, the MIC with Enterococcus faecalis [1] was found to be 2 µg/mL (≈ 4.64 µM); in the test with Streptococcus pneumoniae [2], 2 µg/mL (≈ 4.64 µM); in test [5], 1 µg/mL (≈ 2.32 µM); in test [3], 0.5 µg/mL (≈ 1.16 µM); in the test on Staphylococcus aureus [6], 1 µg/mL (≈ 2.32 µM); with Staphylococcus aureus [4], 1 µg/mL (≈ 2.32 µM).
`O=C1O[C@@H](Cn2ccnn2)[C@@H]2COc3cc(-c4ccc(Cn5cnnn5)nc4)ccc3N12`: the MIC came to 4 µg/mL (≈ 9.27 µM) with Enterococcus faecalis [1]; 4 µg/mL (≈ 9.27 µM) with Streptococcus pneumoniae [2]; 1 µg/mL (≈ 2.32 µM) in [5]; 1 µg/mL (≈ 2.32 µM) in test [3]; 2 µg/mL (≈ 4.64 µM) in the test on Staphylococcus aureus [6]; 2 µg/mL (≈ 4.64 µM) with Staphylococcus aureus [4].
In the case of `Cn1nnc(-c2ccc(-c3ccc4c(c3)OC[C@H]3[C@H](Cn5ccnn5)OC(=O)N43)cn2)n1`, the MIC with Enterococcus faecalis [1] is 4 µg/mL (≈ 9.27 µM); in the test with Streptococcus pneumoniae [2], 1 µg/mL (≈ 2.32 µM); in test [5], 2 µg/mL (≈ 4.64 µM); in [3] it was 1 µg/mL (≈ 2.32 µM); with Staphylococcus aureus [6], 2 µg/mL (≈ 4.64 µM); in the test on Staphylococcus aureus [4], 2 µg/mL (≈ 4.64 µM).
Turning to `N#Cc1ccc(-c2ccc3c(c2)OC[C@H]2[C@H](Cn4ccnn4)OC(=O)N32)cn1`, the Ratio (in the test on Enterococcus faecalis [7]; in the test on Streptococcus pneumoniae [10]; in [8]; in the test on Staphylococcus aureus [9]) was 4 in each case. Moreover, the MIC was 1 µg/mL (≈ 2.67 µM) in the test with Enterococcus faecalis [1]; 0.25 µg/mL (≈ 0.668 µM) in the test with Streptococcus pneumoniae [2]; 0.25 µg/mL (≈ 0.668 µM) in test [5]; 0.25 µg/mL (≈ 0.668 µM) in test [3]; 0.25 µg/mL (≈ 0.668 µM) in the test on Staphylococcus aureus [6]; 0.25 µg/mL (≈ 0.668 µM) with Staphylococcus aureus [4].
Take `CN1C[C@@H](c2ccc(-c3ccc4c(c3)OC[C@H]3[C@H](Cn5ccnn5)OC(=O)N43)cn2)OC1=O`: the MIC with Enterococcus faecalis [1] amounted to 2 µg/mL (≈ 4.46 µM); in the test with Streptococcus pneumoniae [2], 0.25 µg/mL (≈ 0.557 µM); in test [5], 1 µg/mL (≈ 2.23 µM); in [3] it was 0.5 µg/mL (≈ 1.11 µM); in the test on Staphylococcus aureus [6] it was 1 µg/mL (≈ 2.23 µM); with Staphylococcus aureus [4], 0.5 µg/mL (≈ 1.11 µM).
